The values below come from PubChem BioAssay (NCI).

Among the test systems are BT-549 breast; SW-620 colon; MOLT-4 leukemia; UACC-62 melanoma; HCT-15 colon; SF-268 CNS; T-47D breast; KM12 colon; 786-0 renal; OVCAR-5 ovarian.
What all share (assay): DTP human tumour cell line panel, 48 h

Molecules are shown by their SMILES.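 All cell lines were grown in 96-well plates and treated with compound for 48 hours. Here, GI50 denotes the concentration required for 50% inhibition of growth. The concentration for full growth arrest is given as TGI.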

The term GI50 denotes the concentration giving 50% growth inhibition. The TGI is the concentration at which net growth stops. Low readings indicate greater sensitivity of the cells, high ones lower sensitivity of the cells. `CN(C)CCNc1c2c(c(NCCN(C)C)c3[nH]ccc13)C(=O)c1ccccc1C2=O`: the GI50 with BT-549 breast was 1.08 µM; with SW-620 colon, 0.385 µM; in the experiment on MOLT-4 leukemia, 0.199 µM; with UACC-62 melanoma, 1.64 µM; in the experiment with HCT-15 colon it was 0.168 µM; in the experiment on SF-268 CNS, 1.39 µM. Further, the GI50 in the experiment on T-47D breast is 2.87 µM; in the experiment with KM12 colon it was 0.347 µM; with 786-0 renal, 0.899 µM; in the experiment with OVCAR-5 ovarian it was 2.1 µM. The TGI with BT-549 breast is 3.04 µM; in the experiment with SW-620 colon, 2.97 µM; with UACC-62 melanoma, 14.8 µM; with HCT-15 colon it was 3.55 µM; in the experiment with SF-268 CNS it was 5.91 µM; in the experiment with T-47D breast it was above 21.2 µM. Moreover, the TGI worked out at 2.26 µM with KM12 colon and 13 µM in the experiment on OVCAR-5 ovarian.

Turning to `O=C1CC(c2ccc(O)cc2)C2(O1)C(=O)OC(C(O)CO)C2O` (configuration not stated), the TGI in the experiment on BT-549 breast, with SW-620 colon, in the experiment on MOLT-4 leukemia, in the experiment on UACC-62 melanoma, in the experiment on HCT-15 colon and in the experiment with SF-268 CNS was above 100 µM in each case. The TGI in the experiment with T-47D breast, in the experiment with KM12 colon, in the experiment on 786-0 renal and with OVCAR-5 ovarian was above 100 µM each time.

In the case of `OC(c1cc(-c2ccccc2)nc2ccc(Cl)cc12)C1CCCCN1` (configuration not stated), the GI50 in the experiment on BT-549 breast is 5.82 µM; in the experiment on SW-620 colon, 1.94 µM; in the experiment on MOLT-4 leukemia it was 2.51 µM; with UACC-62 melanoma it was 1.88 µM; in the experiment on HCT-15 colon, 1.84 µM; in the experiment with SF-268 CNS it was 3.06 µM. The GI50 is 2.51 µM in the experiment with T-47D breast, 1.94 µM with KM12 colon, 1.96 µM in the experiment with 786-0 renal and 1.84 µM with OVCAR-5 ovarian. Moreover, the TGI was found to be 18.7 µM in the experiment with BT-549 breast; 3.69 µM in the experiment on SW-620 colon; 6.2 µM with MOLT-4 leukemia; 3.68 µM in the experiment with UACC-62 melanoma; 3.53 µM in the experiment on HCT-15 colon; 14 µM with SF-268 CNS. For the same molecule, the TGI stood at 5.47 µM in the experiment on T-47D breast, 3.74 µM in the experiment on KM12 colon, 4.57 µM in the experiment with 786-0 renal and 4.3 µM in the experiment with OVCAR-5 ovarian.

With `COc1ccc(/C(C#N)=C/c2ccccc2OC)cc1`, the GI50 in the experiment with BT-549 breast is 5.64 µM; in the experiment on SW-620 colon it was 3.78 µM; in the experiment with MOLT-4 leukemia it was 5.49 µM; with UACC-62 melanoma, 7.36 µM; with HCT-15 colon, 6.25 µM; with SF-268 CNS it was 35.5 µM. In addition, the GI50 was 10 µM with T-47D breast, 5.04 µM with KM12 colon, 15.2 µM in the experiment on 786-0 renal and 55.4 µM with OVCAR-5 ovarian. Besides, the TGI with BT-549 breast, in the experiment with SW-620 colon, with MOLT-4 leukemia, with UACC-62 melanoma, in the experiment on HCT-15 colon and in the experiment on SF-268 CNS was above 100 µM throughout. Besides, the TGI with T-47D breast, in the experiment with KM12 colon, with 786-0 renal and in the experiment with OVCAR-5 ovarian was above 100 µM throughout.

`CN(C)CCCNC(CC#N)CCC#N` (configuration not stated): the TGI in the experiment on BT-549 breast, with SW-620 colon, in the experiment on MOLT-4 leukemia, in the experiment on UACC-62 melanoma, in the experiment on HCT-15 colon and in the experiment with SF-268 CNS was above 10 µM each time. For the same molecule, the TGI with T-47D breast, in the experiment with KM12 colon, in the experiment with 786-0 renal and in the experiment on OVCAR-5 ovarian was above 10 µM in each case.

As to `CC[C@@H](C(=O)O)C1CC[C@H](C)C([C@@H](C)[C@H](O)[C@H](C)C(=O)[C@H](CC)C2O[C@]3(C=C[C@@H](O)[C@]4(CC[C@@](C)(C5CC[C@](O)(CC)[C@H](C)O5)O4)O3)[C@H](C)C[C@@H]2C)O1` (some centres not stated), the GI50 with BT-549 breast is 0.184 µM; with SW-620 colon, 1.33 µM; with MOLT-4 leukemia, 1.47 µM; in the experiment with UACC-62 melanoma it was 0.767 µM; with HCT-15 colon it was 0.446 µM; in the experiment on SF-268 CNS, 1.31 µM. Besides, the GI50 in the experiment on T-47D breast was 0.371 µM; in the experiment with KM12 colon it was 0.893 µM; in the experiment with 786-0 renal it was 0.656 µM; with OVCAR-5 ovarian, 2.48 µM. For the same molecule, the TGI in the experiment with BT-549 breast was found to be 3.19 µM; with SW-620 colon, 8.93 µM; with MOLT-4 leukemia it was 5.92 µM; in the experiment on UACC-62 melanoma, 2.15 µM; with HCT-15 colon, 21.8 µM; with SF-268 CNS, 16 µM. The TGI in the experiment on T-47D breast is 16 µM; with KM12 colon it was 11.9 µM; in the experiment with 786-0 renal, 7.92 µM; in the experiment with OVCAR-5 ovarian, 50.8 µM.

`NCCOCCOCCNc1nc(Cc2ccccc2)nc(NCCCN2CCCC2=O)n1`: the GI50 in the experiment with BT-549 breast, with SW-620 colon, in the experiment on MOLT-4 leukemia, with UACC-62 melanoma, in the experiment with HCT-15 colon and in the experiment with SF-268 CNS was above 100 µM throughout. In addition, the GI50 in the experiment on T-47D breast, in the experiment with KM12 colon, in the experiment on 786-0 renal and in the experiment on OVCAR-5 ovarian was above 100 µM in each case. The TGI with BT-549 breast, with SW-620 colon, in the experiment on MOLT-4 leukemia, in the experiment with UACC-62 melanoma, in the experiment with HCT-15 colon and in the experiment on SF-268 CNS was above 100 µM each time. The TGI in the experiment with T-47D breast, with KM12 colon, with 786-0 renal and with OVCAR-5 ovarian was above 100 µM in each case.

As for `COc1cccc(-n2ncc3c(N/N=C/c4ccc(C(=O)NCCN(C)C)cc4)ncnc32)c1`, the GI50 is 4.33 µM in the experiment on BT-549 breast; 4.73 µM with SW-620 colon; 4.48 µM in the experiment on MOLT-4 leukemia; 3.72 µM in the experiment on UACC-62 melanoma; 2.85 µM in the experiment on HCT-15 colon; 4.11 µM with SF-268 CNS. Moreover, the GI50 in the experiment with T-47D breast is above 22.6 µM; in the experiment on KM12 colon, 1.36 µM; in the experiment with 786-0 renal it was 3.58 µM; in the experiment with OVCAR-5 ovarian, 4.53 µM. The TGI in the experiment on BT-549 breast came to 8.1 µM; with SW-620 colon, 9.06 µM; with MOLT-4 leukemia it was 11 µM; in the experiment on UACC-62 melanoma it was 7.39 µM; in the experiment on HCT-15 colon, 6.83 µM; with SF-268 CNS, 8.46 µM. In addition, the TGI is above 25 µM in the experiment on T-47D breast, 4.67 µM with KM12 colon, 8.14 µM in the experiment with 786-0 renal and 8.61 µM in the experiment with OVCAR-5 ovarian.

Turning to `COc1cc(/C=C/c2cc(O)c3cc(C(C)=O)c(=O)oc3c2)cc2c1O[C@]1(C)CC[C@@H](O)C(C)(C)[C@H]1C2`, the TGI with BT-549 breast is above 61.2 µM; in the experiment on SW-620 colon it was above 34.7 µM; with MOLT-4 leukemia, above 26.4 µM; in the experiment with UACC-62 melanoma, above 27.8 µM; with HCT-15 colon, above 31.8 µM; in the experiment on SF-268 CNS, above 56.4 µM. For the same molecule, the TGI was above 53.9 µM with T-47D breast, above 39.3 µM in the experiment with KM12 colon, above 25.3 µM with 786-0 renal and above 86 µM in the experiment on OVCAR-5 ovarian. Also, the GI50 was above 21.4 µM in the experiment with SF-268 CNS, above 23.8 µM in the experiment with T-47D breast, above 20.8 µM with KM12 colon and above 36.5 µM with OVCAR-5 ovarian.

For the molecule `N#Cc1c(N2CCCC2)[nH]c(=O)c(C(c2c(Cl)cccc2Cl)c2c(O)c(C#N)c(N3CCCC3)[nH]c2=O)c1O`, the GI50 was 2.3 µM with BT-549 breast; 3.91 µM in the experiment with SW-620 colon; above 100 µM with MOLT-4 leukemia; 4.71 µM in the experiment on UACC-62 melanoma; 7.7 µM in the experiment on HCT-15 colon; 11.9 µM in the experiment with SF-268 CNS. The GI50 with T-47D breast was 3.13 µM; in the experiment on KM12 colon, 22.6 µM; in the experiment on 786-0 renal, 4.34 µM; in the experiment with OVCAR-5 ovarian, 19.2 µM. Also, the TGI with BT-549 breast was 6.25 µM; with SW-620 colon, 18.4 µM; in the experiment with MOLT-4 leukemia, above 100 µM; with UACC-62 melanoma it was 20.5 µM; with HCT-15 colon it was 26.9 µM; in the experiment with SF-268 CNS, 29.3 µM. Also, the TGI with T-47D breast was 13.4 µM; in the experiment with KM12 colon, 54 µM; in the experiment on 786-0 renal it was above 100 µM; with OVCAR-5 ovarian it was 38.3 µM.
